Target: Integrin alpha-IIb/beta-3 (Canis lupus familiaris)
Test: Inhibition of 125I-fibrinogen binding to alpha IIb beta-3 integrin as inhibition of activated platelets

Compound	IC50
CN1C(=O)[C@@H](CCCCNC(=O)c2ccc(NNC(=O)OC(C)(C)C)nc2)NC(=O)c2cccc(c2)CNC(=O)[C@H](CC(=O)O)NC(=O)CNC(=O)[C@@H]1CCCN=C(N)N	16 nM
CC(C)[C@H]1NC(=O)c2cc(cc(NC(=O)CCCCCNC(=O)c3ccc(NN)nc3)c2)CNC(=O)[C@H](CC(=O)O)NC(=O)CNC(=O)[C@H](CCCN=C(N)N)N(C)C1=O	8 nM
CCOC(C)SCC(=O)NCC(CCC(=O)NCCCCCC(=O)Nc1cc2cc(c1)C(=O)N[C@H](C(C)C)C(=O)N(C)[C@@H](CCCN=C(N)N)C(=O)NCC(=O)N[C@@H](CC(=O)O)C(=O)NC2)NC(=O)CSC(C)OCC (stereo partly drawn)	13 nM
CCOC(C)SCC(=O)NCC(CCC(=O)NCCCC[C@H]1NC(=O)c2cccc(c2)CNC(=O)[C@H](CC(=O)O)NC(=O)CNC(=O)[C@H](CCCN=C(N)N)N(C)C1=O)NC(=O)CSC(C)OCC (stereo partly drawn)	11 nM
CC(C)[C@H]1NC(=O)c2cc(cc(NC(=O)CCCCCNC(=O)c3ccc(CN(CCSC(c4ccccc4)(c4ccccc4)c4ccccc4)CC(=O)NCCSC(c4ccccc4)(c4ccccc4)c4ccccc4)cc3)c2)CNC(=O)[C@H](CC(=O)O)NC(=O)CNC(=O)[C@H](CCCN=C(N)N)N(C)C1=O	> 1000 nM

Results, then the compound that gave them:

IC50	Compound
6 nM	CC(C)[C@H]1NC(=O)c2cccc(c2)CNC(=O)[C@H](CC(=O)O)NC(=O)CNC(=O)[C@H](CCCN=C(N)N)N(C)C1=O
9 nM	CC(C)[C@H]1NC(=O)c2cc(cc(NC(=O)CCCCCNC(=O)c3ccc(NNC(=O)OC(C)(C)C)nc3)c2)CNC(=O)[C@H](CC(=O)O)NC(=O)CNC(=O)[C@H](CCCN=C(N)N)N(C)C1=O
5 nM	CC(C)[C@H]1NC(=O)c2cc(cc(NC(=O)CCCCCN)c2)CNC(=O)[C@H](CC(=O)O)NC(=O)CNC(=O)[C@H](CCCN=C(N)N)N(C)C1=O

Source: ChEMBL document CHEMBL1151518, “Synthesis, evaluation and Tc-99m complexation of a hydrazinonicotinyl conjugate of a GP IIb/IIIa antagonist cyclic peptide for the detection of deep vein thrombosis” (Bioorg Med Chem Lett, 1997)
